Laboratory results: ChEMBL document CHEMBL5620355, “Discovery of intracellular self-assembly protein degraders driven by tumor-specific activatable bioorthogonal reaction” (Eur J Med Chem, 2023)
Active and inactive are the calls of the source. The calls are words filed in the database; no cut-off is given here.

Legend:
HEK293 [1] = assay: Cytotoxicity against HEK293 cells at low concentration incubated for 48 hrs in presence of (2S,4R)-1-((S)-2-(5-azidopentanamido)-3,3-dimethylbutanoyl)-4-hydroxy-N-(4-(4-methylthiazol-5-yl)benzyl)pyrrolidine-2-carboxamide by MTT assay; format: toxicity, cell-based; conditions: human, hek293, 48 h
[2] = target: Serine/threonine-protein kinase B-raf (Homo sapiens) (UniProt P15056); assay: Induction of BRAF degradation in human U87 cells at 10 uM incubated for 48 hrs in presence of 4-azido-N-(2-(2,6-dioxopiperidin-3-yl)-1,3-dioxoisoindolin-4-yl)butanamide by Western blot analysis; format: cell-based
U-87 MG [3] = assay: (§1) Induction of apoptosis in human U87 cells assessed as necrotic cells at 0.1 uM incubated for 48 hrs in presence of (2S,4R)-1-((S)-2-(5-azidopentanamido)-3,3-dimethylbutanoyl)-4-hydroxy-N-(4-(4-methylthiazol-5-yl)benzyl)pyrrolidine-2-carboxamide by Annexin V-FLTC/PI staining based flow cytometry (reference value: 0.60 %); format: functional, U-87MG ATCC
U-87 MG [4] = assay: as §1, with “early apoptotic” for “necrotic”, “8.95” for “0.60”; format: functional, U-87MG ATCC
U-87 MG [5] = assay: as §1, with “viable” for “necrotic”, “10” for “0.1”, “86.74” for “0.60”; format: functional, U-87MG ATCC; conditions: read-out: Activity
[6] = target: T1, Ephrin type-B receptor 4 (Homo sapiens) (UniProt P54760); assay: Induction of EphB4 degradation in human U87 cells upto 10 uM incubated for 48 hrs by Western blot analysis; format: cell-based
T1 sequence (whole entry): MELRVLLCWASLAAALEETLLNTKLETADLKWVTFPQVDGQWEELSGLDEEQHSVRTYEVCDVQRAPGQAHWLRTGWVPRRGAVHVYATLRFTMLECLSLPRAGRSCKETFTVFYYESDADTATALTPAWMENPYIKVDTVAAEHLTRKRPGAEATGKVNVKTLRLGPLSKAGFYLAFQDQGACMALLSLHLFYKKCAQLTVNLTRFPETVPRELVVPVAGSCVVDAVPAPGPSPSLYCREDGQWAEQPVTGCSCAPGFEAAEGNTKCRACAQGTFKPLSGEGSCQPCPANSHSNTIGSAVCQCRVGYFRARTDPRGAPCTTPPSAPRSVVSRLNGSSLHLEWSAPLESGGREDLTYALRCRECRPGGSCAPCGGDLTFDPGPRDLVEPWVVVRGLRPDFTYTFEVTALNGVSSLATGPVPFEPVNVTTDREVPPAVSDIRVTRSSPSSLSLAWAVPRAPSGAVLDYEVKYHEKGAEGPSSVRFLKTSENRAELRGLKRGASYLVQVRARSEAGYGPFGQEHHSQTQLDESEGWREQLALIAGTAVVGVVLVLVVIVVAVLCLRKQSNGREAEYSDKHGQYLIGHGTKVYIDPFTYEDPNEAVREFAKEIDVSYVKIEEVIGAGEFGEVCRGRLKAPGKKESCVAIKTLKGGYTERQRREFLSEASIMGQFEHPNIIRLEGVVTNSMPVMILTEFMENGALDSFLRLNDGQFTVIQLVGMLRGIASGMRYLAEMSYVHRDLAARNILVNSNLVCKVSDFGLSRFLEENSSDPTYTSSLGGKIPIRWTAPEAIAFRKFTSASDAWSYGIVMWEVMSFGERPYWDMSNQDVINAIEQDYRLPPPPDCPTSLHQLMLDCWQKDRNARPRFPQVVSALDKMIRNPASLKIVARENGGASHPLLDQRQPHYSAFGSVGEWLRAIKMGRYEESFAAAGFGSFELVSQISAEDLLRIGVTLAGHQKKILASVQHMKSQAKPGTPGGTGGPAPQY

U-87 MG [7] = assay: as §1, with “early apoptotic” for “necrotic”, “20” for “0.1”, “8.95” for “0.60”; format: functional, U-87MG ATCC
U-87 MG [8] = assay: as §1, with “20” for “0.1”; format: functional, U-87MG ATCC
U-87 MG [9] = assay: Induction of apoptosis in human U87 cells assessed as viable cells at 1 uM incubated for 48 hrs in presence of 4-(4-(3-(4-chloro-3-(trifluoromethyl)phenyl)ureido)phenoxy)-N-(prop-2-yn-1-yl)picolinamide by Annexin V-FLTC/PI staining based flow cytometry (reference value: 86.74 %); format: functional, U-87MG ATCC; conditions: read-out: Activity
U-87 MG [10] = assay: Induction of apoptosis in human U87 cells assessed as late apoptotic cells at 1 uM incubated for 48 hrs in presence of 4-(4-(3-(4-chloro-3-(trifluoromethyl)phenyl)ureido)phenoxy)-N-(prop-2-yn-1-yl)picolinamide by Annexin V-FLTC/PI staining based flow cytometry (reference value: 3.71 %); format: functional, U-87MG ATCC
U-87 MG [11] = assay: Induction of apoptosis in human U87 cells assessed as early apoptotic cells at 0.1 uM incubated for 48 hrs in presence of 4-(4-(3-(4-chloro-3-(trifluoromethyl)phenyl)ureido)phenoxy)-N-(prop-2-yn-1-yl)picolinamide by Annexin V-FLTC/PI staining based flow cytometry (reference value: 8.95 %); format: functional, U-87MG ATCC
[12] = Stability of compound in PBS by HPLC analysis; format: physicochemical; conditions: buffer
U-87 MG [13] = assay: Induction of apoptosis in human U87 cells assessed as late apoptotic cells at 0.1 uM incubated for 48 hrs in presence of 4-(4-(3-(4-chloro-3-(trifluoromethyl)phenyl)ureido)phenoxy)-N-(prop-2-yn-1-yl)picolinamide by Annexin V-FLTC/PI staining based flow cytometry (reference value: 3.71 %); format: functional, U-87MG ATCC
[14] = target: Serine/threonine-protein kinase B-raf (Homo sapiens) (UniProt P15056); assay: Induction of BRAF degradation in human U87 cells at 10 uM incubated for 48 hrs in presence of 4-(4-(3-(4-chloro-3-(trifluoromethyl)phenyl)ureido)phenoxy)-N-(prop-2-yn-1-yl)picolinamide by Western blot analysis; format: cell-based
[15] = target: Platelet-derived growth factor receptor beta (Homo sapiens) (UniProt P09619); assay: Induction of PDGFR-beta degradation in human U87 cells at 10 uM incubated for 48 hrs in presence of 4-(4-(3-(4-chloro-3-(trifluoromethyl)phenyl)ureido)phenoxy)-N-(prop-2-yn-1-yl)picolinamide by Western blot analysis; format: cell-based
HEK293 [16] = assay: Cytotoxicity against HEK293 cells at low concentration incubated for 48 hrs in presence of 4-(4-(3-(4-chloro-3-(trifluoromethyl)phenyl)ureido)phenoxy)-N-(prop-2-yn-1-yl)picolinamide by MTT assay; format: toxicity, cell-based; conditions: human, hek293, 48 h
U-87 MG [17] = assay: Induction of apoptosis in human U87 cells assessed as early apoptotic cells at 10 uM incubated for 48 hrs in presence of 4-(4-(3-(4-chloro-3-(trifluoromethyl)phenyl)ureido)phenoxy)-N-(prop-2-yn-1-yl)picolinamide by Annexin V-FLTC/PI staining based flow cytometry (reference value: 8.95 %); format: functional, U-87MG ATCC
[18] = target: Vascular endothelial growth factor receptor 2 (Homo sapiens) (UniProt P35968); assay: Induction of VEGFR2 degradation in human U87 cells at 10 uM incubated for 48 hrs in presence of 4-(4-(3-(4-chloro-3-(trifluoromethyl)phenyl)ureido)phenoxy)-N-(prop-2-yn-1-yl)picolinamide by Western blot analysis; format: cell-based
Vascular endothelial growth factor receptor 2 (Homo sapiens), sequence (P35968 whole entry): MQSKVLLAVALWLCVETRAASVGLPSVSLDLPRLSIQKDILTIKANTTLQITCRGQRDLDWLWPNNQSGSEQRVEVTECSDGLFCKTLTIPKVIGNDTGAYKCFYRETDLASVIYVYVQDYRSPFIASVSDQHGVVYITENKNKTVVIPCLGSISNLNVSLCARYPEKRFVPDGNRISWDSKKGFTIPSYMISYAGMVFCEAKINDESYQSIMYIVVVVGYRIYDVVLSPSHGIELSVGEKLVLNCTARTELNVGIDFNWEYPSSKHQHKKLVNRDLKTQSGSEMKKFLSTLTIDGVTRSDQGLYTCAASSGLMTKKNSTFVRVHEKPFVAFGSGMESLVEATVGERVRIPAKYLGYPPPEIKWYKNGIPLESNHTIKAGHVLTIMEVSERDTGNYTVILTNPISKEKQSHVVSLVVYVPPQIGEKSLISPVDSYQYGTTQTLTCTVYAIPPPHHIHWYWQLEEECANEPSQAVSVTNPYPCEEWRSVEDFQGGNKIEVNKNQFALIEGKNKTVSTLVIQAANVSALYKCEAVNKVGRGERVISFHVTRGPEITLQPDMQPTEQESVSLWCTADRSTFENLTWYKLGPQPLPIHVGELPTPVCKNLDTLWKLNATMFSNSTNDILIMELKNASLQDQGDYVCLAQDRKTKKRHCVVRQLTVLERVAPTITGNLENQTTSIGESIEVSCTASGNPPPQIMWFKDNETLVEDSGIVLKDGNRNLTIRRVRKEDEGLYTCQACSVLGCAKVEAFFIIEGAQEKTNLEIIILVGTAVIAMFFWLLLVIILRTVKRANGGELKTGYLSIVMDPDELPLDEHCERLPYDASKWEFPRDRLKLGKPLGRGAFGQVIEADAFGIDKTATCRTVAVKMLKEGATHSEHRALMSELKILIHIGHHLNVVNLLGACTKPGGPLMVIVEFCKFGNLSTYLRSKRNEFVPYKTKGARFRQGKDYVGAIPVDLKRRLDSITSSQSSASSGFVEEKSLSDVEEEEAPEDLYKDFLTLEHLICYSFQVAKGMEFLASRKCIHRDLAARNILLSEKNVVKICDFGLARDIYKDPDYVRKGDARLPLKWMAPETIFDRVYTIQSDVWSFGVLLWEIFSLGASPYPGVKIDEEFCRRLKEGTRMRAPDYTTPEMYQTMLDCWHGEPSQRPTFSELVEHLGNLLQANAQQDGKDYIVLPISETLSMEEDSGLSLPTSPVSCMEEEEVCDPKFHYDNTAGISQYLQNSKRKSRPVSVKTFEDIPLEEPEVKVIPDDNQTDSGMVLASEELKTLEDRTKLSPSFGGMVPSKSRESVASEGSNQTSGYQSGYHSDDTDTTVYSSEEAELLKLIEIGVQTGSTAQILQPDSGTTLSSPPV

Serine/threonine-protein kinase B-raf (Homo sapiens), sequence (P15056 whole entry): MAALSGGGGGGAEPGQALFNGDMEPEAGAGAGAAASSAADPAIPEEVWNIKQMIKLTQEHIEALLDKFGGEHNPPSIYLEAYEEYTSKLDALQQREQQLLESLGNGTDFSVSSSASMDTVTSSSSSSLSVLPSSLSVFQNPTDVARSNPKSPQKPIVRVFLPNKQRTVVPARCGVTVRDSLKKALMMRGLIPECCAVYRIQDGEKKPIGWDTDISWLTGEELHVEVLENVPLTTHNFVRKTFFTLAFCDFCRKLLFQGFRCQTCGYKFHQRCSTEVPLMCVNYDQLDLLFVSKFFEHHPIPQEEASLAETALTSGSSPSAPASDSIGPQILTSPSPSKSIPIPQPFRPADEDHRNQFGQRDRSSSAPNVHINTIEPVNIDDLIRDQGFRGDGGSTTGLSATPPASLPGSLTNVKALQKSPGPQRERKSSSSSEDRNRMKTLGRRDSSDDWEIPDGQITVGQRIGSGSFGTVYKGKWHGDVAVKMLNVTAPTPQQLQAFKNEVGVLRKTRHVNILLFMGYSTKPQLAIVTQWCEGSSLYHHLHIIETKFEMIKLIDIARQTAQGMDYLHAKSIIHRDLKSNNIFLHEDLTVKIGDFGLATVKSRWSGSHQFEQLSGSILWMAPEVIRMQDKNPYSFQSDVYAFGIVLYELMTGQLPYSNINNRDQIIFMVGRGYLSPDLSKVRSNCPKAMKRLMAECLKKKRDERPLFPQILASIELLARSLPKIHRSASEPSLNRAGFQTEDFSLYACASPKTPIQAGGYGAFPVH
Platelet-derived growth factor receptor beta (Homo sapiens), sequence (P09619 whole entry): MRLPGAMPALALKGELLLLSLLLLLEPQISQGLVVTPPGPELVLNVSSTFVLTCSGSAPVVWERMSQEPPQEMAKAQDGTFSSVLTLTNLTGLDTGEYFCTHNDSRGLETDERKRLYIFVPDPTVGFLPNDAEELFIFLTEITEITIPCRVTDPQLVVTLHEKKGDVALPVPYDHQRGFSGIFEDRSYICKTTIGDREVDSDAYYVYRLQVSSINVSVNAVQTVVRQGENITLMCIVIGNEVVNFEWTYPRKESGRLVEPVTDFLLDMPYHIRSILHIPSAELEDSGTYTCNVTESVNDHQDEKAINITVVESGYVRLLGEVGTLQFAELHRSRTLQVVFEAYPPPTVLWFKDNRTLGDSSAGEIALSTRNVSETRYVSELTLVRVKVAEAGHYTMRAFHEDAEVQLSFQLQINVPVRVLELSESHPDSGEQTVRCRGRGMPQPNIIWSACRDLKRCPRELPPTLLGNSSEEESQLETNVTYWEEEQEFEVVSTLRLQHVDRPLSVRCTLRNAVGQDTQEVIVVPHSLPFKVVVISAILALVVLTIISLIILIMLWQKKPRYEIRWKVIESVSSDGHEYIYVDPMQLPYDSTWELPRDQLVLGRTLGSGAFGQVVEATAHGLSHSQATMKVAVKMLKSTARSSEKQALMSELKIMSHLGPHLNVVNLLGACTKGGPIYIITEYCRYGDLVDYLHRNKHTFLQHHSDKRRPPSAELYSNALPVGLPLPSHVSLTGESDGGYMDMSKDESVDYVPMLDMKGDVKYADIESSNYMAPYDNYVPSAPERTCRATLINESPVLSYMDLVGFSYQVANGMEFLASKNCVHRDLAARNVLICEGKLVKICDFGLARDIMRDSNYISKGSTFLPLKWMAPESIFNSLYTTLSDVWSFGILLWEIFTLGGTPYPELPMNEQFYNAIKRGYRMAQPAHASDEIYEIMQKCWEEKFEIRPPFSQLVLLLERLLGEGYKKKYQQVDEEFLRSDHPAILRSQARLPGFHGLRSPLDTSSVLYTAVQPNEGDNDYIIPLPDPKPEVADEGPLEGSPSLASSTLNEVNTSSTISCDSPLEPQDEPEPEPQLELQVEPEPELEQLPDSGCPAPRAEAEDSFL

Activity [2] | Activity [6] | Stability [12] | Activity [14] | Activity [15] | Activity [18] | SMILES | Activity (HEK293 [1]) | Activity (U-87 MG [3]) [%] | Activity (U-87 MG [4]) [%] | viability at 10 µM (U-87 MG [5]) [%] | Activity (U-87 MG [7]) [%] | Activity (U-87 MG [8]) [%] | viability at 1 µM (U-87 MG [9]) [%] | Activity (U-87 MG [10]) [%] | Activity (U-87 MG [11]) [%] | Activity (U-87 MG [13]) [%] | Activity (HEK293 [16]) | Activity (U-87 MG [17]) [%]
Active | inactive |  |  |  |  | C#CCNC(=O)c1cc(Oc2ccc(NC(=O)Nc3ccc(Cl)c(C(F)(F)F)c3)cc2)ccn1 | Non-Toxic | 1.02 | 10.27 | 1.74 | 4.73 | 6.36 |  |  |  |  |  | 
 |  | Unstable | Active | Active | Active | [N-]=[N+]=NCCCC(=O)Nc1cccc2c1C(=O)N(C1CCC(=O)NC1=O)C2=O (stereo not drawn) |  |  |  |  |  |  | 81.6 | 5.43 | 10.27 | 3.35 | Non-Toxic | 0.08
